Assay results as given in patent publication US20120328696A1, “ANTI-PARKINSONIAN COMPOUND ACETYLSALICYLIC ACID MALTOL ESTER” (Hutecs Korea Pharmaceutical Co., Ltd., priority 2008, published 2012).

How the values were obtained:
Assay type in all cases: in vivo
cleaved PKCδ = assay: Striatal cleaved PKCδ expression after MA (western blot); conditions: MA 8 mg/kg i.p. x4, GPx-1 (+/+) and (−/−) mice; for effect on MA-induced striatal cleaved PKCδ expression: p.o., AME 25 or 50, EBS 10 or 20, rottlerin 10 or 20 mg/kg
Protocol: (§1) The mice received four times of MA (8 mg/kg, ip) or saline as a 2 hr-time interval. Chemicals (AME, EBS, and PKC inhibitors) were administrated for 5 consecutive days (twice daily), and were given 2 times at 4 hr and 30 min before the first MA injection as shown in the experimental schedule. Animals were sacrificed at 4 hrs and 3 days after the final MA administration.
Tissues were homogenized in lysis buffer, containing 200 mM Tris HCl (pH 6.8), 1% SDS, 5 mM EGTA (ethylene glycol tetraacetic acid), 5 mM EDTA (ethylenediaminetetraacetic acid), 10% glycerol, 1× phosphatase inhibitor cocktail I, 1× protease inhibitor cocktail. Lysate was centrifuged at 12,000×g for 30 min and supernatant fraction was used for Western blot analysis. […] And then, membranes were incubated with HRP-conjugated secondary anti-rabbit IgG (1:1000, GE healthcare, Piscataway, N.J., USA), anti-mouse IgG (1:1000, Sigma) or anti-goat IgG (1:1000, Sigma) for 2 h. Subsequent visualization was performed using enhanced chemiluminescence system (ECL Plus®, GE healthcare).

[1] = system: reactive oxygen species (ROS); assay: Striatal ROS formation after MA; conditions: striatum, 3 days after final MA; p.o.; AME 50, EBS 20, rottlerin 20 mg/kg; GPx-1 (+/+) and (−/−) mice
Protocol: as §1
The extent of reactive oxygen species (ROS) formation in the striatum was assessed by measuring the convertion from 2′,7′-dichlorofluorescin diacetate (DCFH-DA) to dichlorofluoresin (DCF) as describe by Bourre et al., (2002) with slight modification. Brain homogenates were added to a tube containing 2 ml of PBS with 10 nmole of DCFH-DA, dissolved in methanol. Mixture were incubated at 37° C. for 3 hours and then measured the absorbance at 480 nm excitation and 525 nm emission. DCF is used as a standard.

MDA, 4-HNE = assay: Striatal lipid peroxidation (MDA, 4-HNE) after MA; conditions: MDA and 4-HNE; striatum, 3 days after final MA; p.o.; AME 50, EBS 20, rottlerin 20 mg/kg; GPx-1 (+/+) and (−/−) mice
Protocol: as §1
The amount of lipid peroxidation was assessed by measuring the accumulation of thiobarbituric acid-reactive substance in homogenates of striatal tissue and is expressed as malondialdehyde (MDA) content (Kim et al., 1999, 2000b, 2002). In brief, 0.1 ml of the homogenate (or standard solutions prepared daily from 1,1,3,3-tetra-methoxypropane) and 0.75 ml of the working solution (thiobarbituric acid 0.37% and perchloric acid 6.4%, 2:1 v/v) were mixed and heated in a water bath to 95° C. for 1 h. After cooling (10 min in ice water bath), the flocculent precipitate was removed by centrifugation at 3200×g for 10 min. The supernatant was neutralized and filtered prior to injection on an ODS 5 μm column. Mobile phase consisted of 50 mM PBS (pH 6.0): methanol (58:42, v/v). Isocratic separation was performed with 1.0 ml/min flow rate and detection at 532 nm using a UV/VIS HPLC-Detector (Model 486, Waters Associates, Milford, Mass., USA). MDA values were expressed as nmole/mg protein.
4-hydroxy-2-nonenal (4HNE) is major product of the lipid peroxidation process (Benedetti et al., 1980). Determining of 4HNE was performed as slot blot analysis (Zhang et al., 2000). Briefly, following transfer, the PVDF membranes were preincubated with 5% non-fat milk and incubated overnight at 4° C. with anti-4HNE (1:2000, Calbiochem, San Diego, Calif., USA). After incubation with primary antibody, membranes were incubated with a HRP-conjugated secondary antibody. Subsequent visualization was performed using enhanced chemiluminescence system (ECL Plus®, GE healthcare).

[2] = system: tyrosine hydroxylase (TH); assay: Striatal tyrosine hydroxylase (TH) activity after MA; conditions: p.o.; AME 50, EBS 20, rottlerin 20 mg/kg; MA 8 mg/kg i.p. x4; GPx-1 (+/+) and (−/−) mice
Protocol: as §1
TH activity was measured according to the method of Lucock et al. with some modification (Duan et al., 2005). Briefly, striatum was lysed in 400 μl TH working solution (1-tyrosine: 300 μmol/L; FeSO4: 1 mmol/L; NaAC: 200 mmol/L; NSD-1050:500 won; DTT: 1 mmol/L; MES: 40 mmol/L, pH 5.2-5.6) with freezing-thawing repeatedly for three times. The lysate was reacted for 3 h at 25° C. The reaction was stopped by 0.4 mol/L perchloric acid, and then reactant was centrifuged at 14,000×g for 10 min. Supernatants were collected to assay the amounts of 1-dopa by HPLC-ECD. The activity of TH was expressed as that amount of 1-dopa per minute and per gram of wet tissue.

SMILES	effect on MA-induced striatal cleaved PKCδ expression (cleaved PKCδ)	effect on MA-induced increase in ROS [1]	effect on MA-induced increase in lipid peroxidation (MDA, 4-HNE)	effect on MA-induced decrease in TH activity [2]	effect on MA-induced increase in striatal cleaved PKCδ expression (cleaved PKCδ; intra-striatal)
O=c1c2ccccc2[se]n1-c1ccccc1 [EBS, 2-phenyl-1,2-benzisoselenazol-3(2H)-one]	significantly reduced MA-induced the PKCδ- and cleaved PKCδ-expressions in a dose-related manner	significantly attenuated	significantly attenuated	decrease in TH activity was attenuated	–
CC(=O)Oc1ccccc1C(=O)Oc1c(C)occc1=O [AME, 3-(2-methyl-4-pyronyl)-2-acetyloxybenzoate]	significantly reduced MA-induced the PKCδ- and cleaved PKCδ-expressions in a dose-related manner	significantly attenuated	significantly attenuated	decrease in TH activity was attenuated	–
CC(=O)c1c(O)c(C)c(O)c(Cc2c(O)c3c(c(C(=O)/C=C/c4ccccc4)c2O)OC(C)(C)C=C3)c1O [rottlerin]	significantly reduced MA-induced the PKCδ- and cleaved PKCδ-expressions in a dose-related manner	significantly attenuated	significantly attenuated	decrease in TH activity was attenuated	attenuated the MA-induced increases in PKCδ expressions in a dose-dependent manner
